One assay has as its target T1, rat P2X4 (Rattus norvegicus, UniProt P51577).
T1 construct: expressed in transfected cells
T1 sequence (P51577 1-388): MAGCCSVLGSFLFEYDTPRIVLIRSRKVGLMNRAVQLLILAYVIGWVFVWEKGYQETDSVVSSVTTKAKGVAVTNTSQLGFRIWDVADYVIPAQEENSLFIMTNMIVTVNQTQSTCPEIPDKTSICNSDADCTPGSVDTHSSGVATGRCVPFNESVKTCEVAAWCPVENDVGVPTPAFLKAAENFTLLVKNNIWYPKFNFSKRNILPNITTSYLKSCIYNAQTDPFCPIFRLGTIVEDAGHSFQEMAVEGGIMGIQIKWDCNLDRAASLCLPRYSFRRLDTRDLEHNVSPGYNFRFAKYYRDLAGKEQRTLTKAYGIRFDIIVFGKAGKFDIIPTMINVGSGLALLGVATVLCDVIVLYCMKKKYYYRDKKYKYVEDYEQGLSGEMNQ
The experiment in a line: FLIPR Method for Rat P2X4 1321N1 Astrocytoma Cells. Format: cell-based. Particulars: 1321N1 stably expressing rat P2X4; agonist MgATP 5 μM (EC80). The gist of the method:
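1321N1 cells stably expressing rat P2X4, Fluo8-AM loaded; compounds (25 μM to 1 nM final, ten concentrations) preincubated 30 min at room temperature, then MgATP added at 5 μM (EC80). Calcium fluorescence read on FLIPR before and after agonist; triplicate data normalized to agonist control, four-parameter fit gives IC50.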

For the next assay, the target named is T2, human P2X4 (Homo sapiens, UniProt Q99571).
T2 construct: expressed in transfected cells
T2 sequence (Q99571 1-388): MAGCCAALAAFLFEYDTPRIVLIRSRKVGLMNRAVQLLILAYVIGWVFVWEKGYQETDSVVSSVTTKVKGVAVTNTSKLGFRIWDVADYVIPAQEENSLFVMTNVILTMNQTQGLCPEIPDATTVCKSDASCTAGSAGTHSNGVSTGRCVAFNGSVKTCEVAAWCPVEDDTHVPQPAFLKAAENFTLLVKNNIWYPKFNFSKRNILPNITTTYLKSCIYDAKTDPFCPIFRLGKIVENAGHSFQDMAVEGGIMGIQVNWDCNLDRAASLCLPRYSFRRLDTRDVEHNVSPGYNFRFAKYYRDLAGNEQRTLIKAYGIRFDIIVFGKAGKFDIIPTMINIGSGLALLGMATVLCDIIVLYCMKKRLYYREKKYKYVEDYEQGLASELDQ
As to the kind of experiment: Human P2X4 HEK Cell FLIPR Assay. It is filed as cell-based. The conditions noted are these: HEK293 stably expressing human P2X4, agonist Bz-ATP 3 μM (EC80). In a few lines: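 HEK293 cells stably expressing human P2X4 were loaded with Fluo8-AM (30 min, 37 °C, HBSS/HEPES pH 7.4 with probenecid), then preincubated 30 min at room temperature with compound, 25 μM–1 nM final, 0.5% DMSO. Bz-ATP-evoked calcium fluorescence was read on FLIPR; data were normalized to agonist control and given a four-parameter fit for IC50.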

The subject of assay [1] is intraplantar Complete Freund's Adjuvant (CFA)-induced acute inflammatory pain. The experiment in a line: CFA Inflammation Model in Rats with Pain Behaviour Read Out. It is filed as in vivo, male Sprague Dawley rats. The conditions noted are these: for PWT 2 hour-post drug / PWT 4 hour-post drug: mean PWT. The method, then: Compound was tested in the model of intraplantar Complete Freund's Adjuvant (CFA)-induced acute (48-hours setting) inflammatory pain in male Sprague Dawley rats. Briefly, 25 μl of CFA at 1 mg/ml was injected into the plantar surface of one hind paw. Mechanical hyperalgesia was measured using the Pressure Application Measurement apparatus (Ugo Basile, Gemonio, Italy). A linearly increasing pressure was applied to an area of approximately 50 mm^2 of the plantar side of the hind paw until a behavioural response (paw withdrawal) was observed or until the pressure reached 1000 grams of force (gf). The pressure at which the behavioural response occurred was recorded as the “Paw Withdrawal Threshold” (PWT). Both CFA-injected and contralateral PWTs were determined for each rat, in each treatment group and at each time point of the studies. The measurements were performed blinded. […] Compound or vehicle (10% DMSO, 40% Solutol, 50% water for injection, vol/vol) were dosed via oral route (p.o.) once daily (QD) or twice daily (BID) during 3 days, starting before CFA injection. Data were expressed as the mean PWT for each treatment group and at each time point. PWT data were analysed by performing a two way ANOVA with repeated measures (time×treatment). Planned comparison of means (each versus vehicle) was performed by using a Dunnett's post hoc test, provided that a main effect was detected. For p values less than 0.05, the results were deemed to be statistically significant.

The subject of assay [2] is neuropathic mechanical allodynia induced by CCI surgery. The experiment in a line: Chronic Constriction Injury (CCI) Neuropathic Pain Model in Rats with Pain Behavior Read Out. Particulars: rat CCI; von Frey; gabapentin 100 mg/kg SID on days 0, 2, 5, 9; all post-dose time points. It is filed as in vivo, male Sprague-Dawley rats. Here is the method:
Aim of the study was to test the efficacy of example 68 at ameliorating neuropathic mechanical allodynia. Male Sprague-Dawley rats were subject to chronic constriction injury of the sciatic nerve to induce neuropathic pain. Of those rats, 10 per group were assigned to treatment conditions involving BID drug administration for 10 days and behavioral assessment of mechanical sensitivity for allodynia with von Frey testing (vF). Behavior was assessed pre- and postdosing on Days 0, 2, 5, and 9. Rats were treated with Vehicle or test article BID on days 0 through 9, and rats in the gabapentin treatment group received gabapentin SID on days 0, 2, 5, and 9 in conjunction with behavioral assessment.
As vehicle Solutol/DMSO/WFI (40/10/50) was employed. Application volume for the per oral administration was 10 ml/kg.
Neuropathy was induced in male Sprague-Dawley rats by tying four loose ligatures of chromic gut around the common sciatic nerve in deeply anesthetized rats like described in Bennett, G. J., and Y. K. Xie. “A Peripheral Mononeuropathy in Rat That Produces Disorders of Pain Sensation like Those Seen in Man.” Pain 33 (1988): 87-107.
Mechanical allodynia was measured using 8 Semmes-Weinstein filaments (Stoelting©; Wood Dale, Ill., USA) with varying stiffness (0.4, 0.6, 1.0, 2.0, 4.0, 6.0, 8.0, and 15 g) according to the up-down method1. Animals were placed in individual acrylic chambers on a metal mesh surface and allowed to acclimate to their surroundings for a minimum of 15 minutes before testing. Each filament was presented perpendicular to the plantar surface with sufficient force to cause slight buckling against the paw and held for approximately 6 seconds or until a positive response is noted (paw sharply withdrawn).
Testing was initiated with the 2.0 g filament. In the absence of a paw withdrawal response, the next stronger stimulus was presented. In the event of paw withdrawal, the next weaker stimulus was used. […]
The 50% response threshold is calculated using the formula: […]

[3] abbreviates: rat CFA, 50 mg/kg QD p.o. during 3 days.
[4] abbreviates: rat CFA, 100 mg/kg QD p.o. during 3 days.

As usually defined, the IC50 is the midpoint of a concentration-inhibition curve.

Turning to `CC(=O)N(c1ccc(F)cc1)c1cc(NC(=O)Cc2cccc(F)c2Cl)ccn1` [Example 2, N-{4-[2-(2-chloro-3-fluorophenyl)acetamido]pyridin-2-yl}-N-(4-fluorophenyl)acetamide], at rat P2X4, the IC50 worked out at 358 nM and the “Rat P2X4 1321N1 Astrocytoma Cells (FLIPR Assay) avg Efficacy” value worked out at 95%. Also, the “Human P2X4 HEK Cells (FLIPR Assay) avg Efficacy” value on human P2X4 turned out to be 97%. The IC50 at human P2X4 (read-out: Human P2X4 HEK Cells (FLIPR Assay) avg IC50) was 212 nM. Further, in assay [1] (setting [3]), the “PWT 2 hour-post drug” value is given as 727 gf and the “PWT 4 hour-post drug” value worked out at 688 gf. Further, in assay [1] (setting [4]), the “PWT 2 hour-post drug” value came out at 763 gf and the “PWT 4 hour-post drug” value is 839 gf. For the same molecule, the pain after treatment entry in assay [1] (rat CFA, 50 and 100 mg/kg doses QD, 2 and 4 hours after last administration) is recorded as “significantly reduced pain”. For the same molecule, the “development of inflammatory pain after the injection of CFA” value in assay [1] (rat, oral administration QD during 3 days) is given as “prevented the development of inflammatory pain”.

As for `NCC1(CC(=O)O)CCCCC1` [Gabapentin, gabapentin, reference compound], the paw withdrawal thresholds entry in assay [2] is “significantly increased paw withdrawal thresholds”.

(Values after patent publication US20230257351A1, “SUBSTITUTED N-[…] HAVING P2X4 RECEPTOR ANTAGONISTIC ACTIVITY” (Bayer Aktiengesellschaft, priority 2020, published 2023).)
